Measured values as given in patent publication US20130310416A1, “Methods and Compositions for Preventing or Treating Age-Related Diseases” (Tartis-Aging, LLC, priority 2006, published 2013).

What was measured:
tumor growth = conditions: in vitro and in vivo models; cited from earlier work
WI-38 fibroblasts = experiment: doxorubicin exposure, induction of cell senescence; type: cell-based, human; conditions: exposure to doxorubicin, FIG. 2
Protocol: To illustrate the relationship between the TOR pathway and cell senescence, experiments were performed using WI-38 fibroblasts, a cell line that is commonly used to investigate cell senescence (Sarraj et al., 2001). […] Cell senescence is characterized by a large and flat cell morphology, beta-galactosidase expression in the cytoplasm as a terminal, non-replicative condition.

rodents = rodents (Anisimov et al., 2005); cited from earlier work
[1] = rapamycin administration (Kahan, 2004; Rodriguez et al., 2006); cited from earlier work

In the case of CO[C@H]1C[C@@H]2CC[C@@H](C)[C@@](O)(O2)C(=O)C(=O)N2CCCC[C@H]2C(=O)O[C@H]([C@H](C)C[C@@H]2CC[C@@H](OC(=O)C(C)(CO)CO)[C@H](OC)C2)CC(=O)[C@H](C)/C=C(\C)[C@@H](O)[C@@H](OC)C(=O)[C@H](C)C[C@H](C)/C=C/C=C/C=C/1C [CCI-779, Rapamycin 42-ester with 3-hydroxy-2-(hydroxymethyl)-2-methylpropionic acid], the “effect on tumor growth” value (tumor growth) is listed as “significant inhibitory effects on tumor growth”.

With COc1cccc2c1C(=O)c1c(O)c3c(c(O)c1C2=O)C[C@@](O)(C(=O)CO)C[C@@H]3O[C@H]1C[C@H](N)[C@H](O)[C@H](C)O1 [doxorubicin] the “induction of cell senescence” value (WI-38 fibroblasts) was “induces accelerated cell senescence”.

In the case of CN(C)C(=N)N=C(N)N [metformin], the life span (rodents) is listed as “extend life span”.

In the case of [H]/N=C(/N)N/C(=N/[H])NCCc1ccccc1 [phenformin], the life span (rodents) is given as “extend life span”.

For CO[C@H]1C[C@@H]2CC[C@@H](C)[C@@](O)(O2)C(=O)C(=O)N2CCCC[C@H]2C(=O)O[C@H]([C@H](C)C[C@@H]2CC[C@@H](O)[C@H](OC)C2)CC(=O)[C@H](C)/C=C(\C)[C@@H](O)[C@@H](OC)C(=O)[C@H](C)C[C@H](C)/C=C/C=C/C=C/1C [rapamycin], the “most common side effect” value [1] is listed as “increase of blood lipids”.
